The record followed here is PMC5564600 (Oncotarget, 2017).

Common to all, as to test: biochemical
Assay type in all cases: binding

Experiment [1] concerns the target T1, panel of 442 kinases (Homo sapiens, UniProt O96013).
T1 construct: purchased Ambit Biosciences (scanMAXX KINOMEscan)
To be noted: kinase PAK4; for remaining activity at 1 µM: read-out: % of control at 1 µM.

Experiment [2] deals with T2, panel of 442 kinases (Homo sapiens, UniProt Q9P0L2).
T2 construct: purchased Ambit Biosciences (scanMAXX KINOMEscan)
T2 sequence (Q9P0L2 whole entry): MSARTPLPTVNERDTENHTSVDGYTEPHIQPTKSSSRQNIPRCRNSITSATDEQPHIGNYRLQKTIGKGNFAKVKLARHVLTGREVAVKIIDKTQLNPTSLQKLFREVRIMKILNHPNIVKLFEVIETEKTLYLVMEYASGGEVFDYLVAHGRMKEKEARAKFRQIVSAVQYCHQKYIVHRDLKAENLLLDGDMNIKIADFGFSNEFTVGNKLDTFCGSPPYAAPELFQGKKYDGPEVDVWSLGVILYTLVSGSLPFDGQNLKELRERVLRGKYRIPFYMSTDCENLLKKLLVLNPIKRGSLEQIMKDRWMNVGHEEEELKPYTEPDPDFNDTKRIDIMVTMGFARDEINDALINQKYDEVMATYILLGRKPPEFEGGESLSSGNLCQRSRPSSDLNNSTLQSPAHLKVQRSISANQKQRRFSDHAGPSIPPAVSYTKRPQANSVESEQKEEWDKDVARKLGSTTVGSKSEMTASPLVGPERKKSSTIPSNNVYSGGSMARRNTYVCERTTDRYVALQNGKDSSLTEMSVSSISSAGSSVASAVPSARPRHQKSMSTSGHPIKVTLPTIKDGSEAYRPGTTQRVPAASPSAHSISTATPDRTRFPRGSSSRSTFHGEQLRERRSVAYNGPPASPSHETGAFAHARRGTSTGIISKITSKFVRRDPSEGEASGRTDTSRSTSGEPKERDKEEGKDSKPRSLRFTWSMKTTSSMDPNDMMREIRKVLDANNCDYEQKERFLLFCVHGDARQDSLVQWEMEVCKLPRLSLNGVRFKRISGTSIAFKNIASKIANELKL
To be noted: kinase MARK1; for remaining activity at 1 µM: read-out: % of control at 1 µM.

The target of experiment [3] is T3, panel of 442 kinases (Homo sapiens, UniProt Q14012).
T3 construct: purchased Ambit Biosciences (scanMAXX KINOMEscan)
T3 sequence (Q14012 whole entry): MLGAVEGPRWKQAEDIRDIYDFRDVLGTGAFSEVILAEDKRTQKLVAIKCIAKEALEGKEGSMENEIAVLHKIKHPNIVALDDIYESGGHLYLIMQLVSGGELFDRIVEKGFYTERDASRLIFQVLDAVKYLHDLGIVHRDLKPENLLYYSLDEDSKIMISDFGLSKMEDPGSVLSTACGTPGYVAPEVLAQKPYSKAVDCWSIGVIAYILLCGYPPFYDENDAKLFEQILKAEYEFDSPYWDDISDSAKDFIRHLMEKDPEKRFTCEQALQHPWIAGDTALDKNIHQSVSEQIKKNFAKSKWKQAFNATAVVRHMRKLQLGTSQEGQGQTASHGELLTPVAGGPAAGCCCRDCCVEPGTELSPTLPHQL
To be noted: CAMK1; for remaining activity at 1 µM: read-out: % of control at 1 µM.

For experiment [4], the target named is T4, panel of 442 kinases (Homo sapiens, UniProt O43318).
T4 construct: purchased Ambit Biosciences (scanMAXX KINOMEscan)
T4 sequence (O43318 1-606): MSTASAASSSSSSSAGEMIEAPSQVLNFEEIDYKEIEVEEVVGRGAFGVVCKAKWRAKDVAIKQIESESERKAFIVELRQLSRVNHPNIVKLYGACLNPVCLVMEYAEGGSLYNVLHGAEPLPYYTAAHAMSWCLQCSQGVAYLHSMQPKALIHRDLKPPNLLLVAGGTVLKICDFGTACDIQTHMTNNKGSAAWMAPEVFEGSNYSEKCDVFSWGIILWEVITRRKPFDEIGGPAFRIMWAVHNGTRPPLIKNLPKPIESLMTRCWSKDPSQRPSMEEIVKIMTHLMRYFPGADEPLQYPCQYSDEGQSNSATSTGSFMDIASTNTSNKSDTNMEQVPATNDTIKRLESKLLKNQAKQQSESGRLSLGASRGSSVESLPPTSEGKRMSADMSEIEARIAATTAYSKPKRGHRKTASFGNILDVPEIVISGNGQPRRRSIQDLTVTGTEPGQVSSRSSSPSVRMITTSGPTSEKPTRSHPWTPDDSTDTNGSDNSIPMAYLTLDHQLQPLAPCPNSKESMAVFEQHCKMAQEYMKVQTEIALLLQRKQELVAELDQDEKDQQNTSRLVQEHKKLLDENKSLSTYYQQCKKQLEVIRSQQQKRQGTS
The settings on record: kinase TAK1; for remaining activity at 1 µM: read-out: TAK1 (% of control at 1 µM).

Experiment [5] deals with T5, panel of 442 kinases (Homo sapiens, UniProt Q6PHR2).
T5 construct: purchased Ambit Biosciences (scanMAXX KINOMEscan)
T5 sequence (Q6PHR2 1-472): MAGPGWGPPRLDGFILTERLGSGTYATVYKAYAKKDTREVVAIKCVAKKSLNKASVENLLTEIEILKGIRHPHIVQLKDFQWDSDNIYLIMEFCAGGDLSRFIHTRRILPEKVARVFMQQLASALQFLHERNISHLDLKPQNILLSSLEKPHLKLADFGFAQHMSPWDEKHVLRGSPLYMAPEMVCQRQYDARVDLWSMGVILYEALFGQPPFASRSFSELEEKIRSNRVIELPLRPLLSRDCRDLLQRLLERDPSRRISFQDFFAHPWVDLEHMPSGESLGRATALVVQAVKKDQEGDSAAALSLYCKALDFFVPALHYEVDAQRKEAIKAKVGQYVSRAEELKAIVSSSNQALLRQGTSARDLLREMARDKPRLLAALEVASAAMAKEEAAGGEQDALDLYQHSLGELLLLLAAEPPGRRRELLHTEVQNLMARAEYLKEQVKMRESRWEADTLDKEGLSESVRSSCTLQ
The settings on record: kinase ULK3; for remaining activity at 1 µM: read-out: ULK3 (% of control at 1 µM).

In experiment [6] the target is T6, panel of 442 kinases (Homo sapiens, UniProt Q16659).
T6 construct: purchased Ambit Biosciences (scanMAXX KINOMEscan)
T6 sequence (Q16659 whole entry): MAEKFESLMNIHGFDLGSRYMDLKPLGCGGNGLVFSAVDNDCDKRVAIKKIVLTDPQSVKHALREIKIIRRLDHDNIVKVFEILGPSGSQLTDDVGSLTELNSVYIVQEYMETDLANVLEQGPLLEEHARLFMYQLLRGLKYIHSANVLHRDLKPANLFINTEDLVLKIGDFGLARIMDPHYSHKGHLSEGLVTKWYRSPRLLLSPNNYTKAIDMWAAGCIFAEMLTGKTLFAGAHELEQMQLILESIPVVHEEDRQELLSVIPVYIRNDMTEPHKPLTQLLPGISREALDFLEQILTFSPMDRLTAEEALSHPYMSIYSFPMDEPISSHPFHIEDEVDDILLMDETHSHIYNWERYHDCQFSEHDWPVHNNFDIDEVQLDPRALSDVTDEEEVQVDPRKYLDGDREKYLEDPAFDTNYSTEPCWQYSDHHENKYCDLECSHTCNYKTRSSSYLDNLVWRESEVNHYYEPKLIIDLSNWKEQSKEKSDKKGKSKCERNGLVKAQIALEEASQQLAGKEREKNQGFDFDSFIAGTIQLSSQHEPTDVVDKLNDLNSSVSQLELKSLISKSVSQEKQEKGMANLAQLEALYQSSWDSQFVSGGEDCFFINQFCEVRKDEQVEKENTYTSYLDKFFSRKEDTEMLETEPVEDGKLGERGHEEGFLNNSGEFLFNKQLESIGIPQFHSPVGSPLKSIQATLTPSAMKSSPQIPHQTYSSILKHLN
The settings on record: ERK3; for remaining activity at 1 µM: read-out: % of control at 1 µM.

Experiment [7] concerns the target T7, panel of 442 kinases (Homo sapiens, UniProt P54756).
T7 construct: purchased Ambit Biosciences (scanMAXX KINOMEscan)
The settings on record: EPHA5; for remaining activity at 1 µM: read-out: % of control at 1 µM.

The target in experiment [8] is T8, panel of 442 kinases (Homo sapiens, UniProt P54646).
T8 construct: purchased Ambit Biosciences (scanMAXX KINOMEscan)
T8 sequence (P54646 whole entry): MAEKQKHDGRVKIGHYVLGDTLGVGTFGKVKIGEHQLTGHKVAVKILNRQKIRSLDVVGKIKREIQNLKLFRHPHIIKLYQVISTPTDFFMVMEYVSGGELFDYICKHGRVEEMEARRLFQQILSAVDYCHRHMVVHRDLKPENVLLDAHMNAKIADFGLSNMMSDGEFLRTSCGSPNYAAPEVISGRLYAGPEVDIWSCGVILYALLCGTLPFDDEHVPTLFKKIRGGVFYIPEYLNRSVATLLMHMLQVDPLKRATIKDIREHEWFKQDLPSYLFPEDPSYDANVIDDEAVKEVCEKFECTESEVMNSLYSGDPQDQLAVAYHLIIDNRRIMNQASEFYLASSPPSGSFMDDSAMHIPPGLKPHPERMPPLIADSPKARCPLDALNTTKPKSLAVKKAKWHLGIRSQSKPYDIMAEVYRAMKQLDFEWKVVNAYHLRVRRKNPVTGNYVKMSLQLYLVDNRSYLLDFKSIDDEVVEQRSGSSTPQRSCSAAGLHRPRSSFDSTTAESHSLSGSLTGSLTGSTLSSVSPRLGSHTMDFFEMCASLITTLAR
The settings on record: AMPK-alpha2; for remaining activity at 1 µM: read-out: % of control at 1 µM.

The target in experiment [9] is T9, panel of 442 kinases (Homo sapiens, UniProt Q04771).
T9 construct: purchased Ambit Biosciences (scanMAXX KINOMEscan)
T9 sequence (Q04771 21-509): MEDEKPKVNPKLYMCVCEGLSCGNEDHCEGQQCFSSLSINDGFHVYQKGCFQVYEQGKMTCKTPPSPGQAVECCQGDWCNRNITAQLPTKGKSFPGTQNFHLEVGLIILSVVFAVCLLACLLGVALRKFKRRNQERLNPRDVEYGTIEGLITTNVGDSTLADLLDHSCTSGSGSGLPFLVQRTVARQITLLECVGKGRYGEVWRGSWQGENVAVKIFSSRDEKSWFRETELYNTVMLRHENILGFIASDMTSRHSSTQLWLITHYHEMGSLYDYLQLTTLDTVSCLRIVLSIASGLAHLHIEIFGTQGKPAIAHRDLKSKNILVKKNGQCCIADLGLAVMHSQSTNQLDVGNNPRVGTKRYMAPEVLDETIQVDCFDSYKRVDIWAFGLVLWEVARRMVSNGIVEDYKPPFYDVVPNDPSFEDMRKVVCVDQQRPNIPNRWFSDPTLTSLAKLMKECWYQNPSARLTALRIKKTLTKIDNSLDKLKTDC
The settings on record: ACVR1; for remaining activity at 1 µM: read-out: % of control at 1 µM.

Experiment [10] deals with T10, panel of 442 kinases (Homo sapiens, UniProt Q00526).
T10 construct: purchased Ambit Biosciences (scanMAXX KINOMEscan)
T10 sequence (Q00526 whole entry): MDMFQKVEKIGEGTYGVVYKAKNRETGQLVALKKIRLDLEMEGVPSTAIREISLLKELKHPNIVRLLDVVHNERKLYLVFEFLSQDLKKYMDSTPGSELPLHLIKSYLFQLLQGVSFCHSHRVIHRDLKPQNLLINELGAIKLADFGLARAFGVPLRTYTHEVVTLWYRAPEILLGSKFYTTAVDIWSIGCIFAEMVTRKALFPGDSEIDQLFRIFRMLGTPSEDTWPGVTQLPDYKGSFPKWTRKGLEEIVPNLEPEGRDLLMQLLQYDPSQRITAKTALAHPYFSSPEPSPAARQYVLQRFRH
The settings on record: CDK3; for remaining activity at 1 µM: read-out: % of control at 1 µM.

The mark [11] stands for this setting: 10 µM, read-out: % of control at 10 µM.

T1 sequence (O96013 whole entry): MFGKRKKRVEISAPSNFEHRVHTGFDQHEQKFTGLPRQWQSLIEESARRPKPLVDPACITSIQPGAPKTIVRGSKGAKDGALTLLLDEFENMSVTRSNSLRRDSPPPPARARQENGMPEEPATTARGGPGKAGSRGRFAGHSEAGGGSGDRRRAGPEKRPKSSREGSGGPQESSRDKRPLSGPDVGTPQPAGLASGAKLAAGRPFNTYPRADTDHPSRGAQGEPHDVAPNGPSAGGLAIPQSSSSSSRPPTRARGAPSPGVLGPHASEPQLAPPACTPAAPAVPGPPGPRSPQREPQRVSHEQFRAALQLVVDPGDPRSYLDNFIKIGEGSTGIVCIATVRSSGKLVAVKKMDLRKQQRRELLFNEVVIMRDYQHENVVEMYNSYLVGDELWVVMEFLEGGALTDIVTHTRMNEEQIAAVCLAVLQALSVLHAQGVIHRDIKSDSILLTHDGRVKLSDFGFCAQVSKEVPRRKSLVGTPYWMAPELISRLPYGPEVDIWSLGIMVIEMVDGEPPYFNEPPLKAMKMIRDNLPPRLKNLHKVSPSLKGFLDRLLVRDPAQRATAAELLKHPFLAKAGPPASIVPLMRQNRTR
T7 sequence (P54756 25-1037): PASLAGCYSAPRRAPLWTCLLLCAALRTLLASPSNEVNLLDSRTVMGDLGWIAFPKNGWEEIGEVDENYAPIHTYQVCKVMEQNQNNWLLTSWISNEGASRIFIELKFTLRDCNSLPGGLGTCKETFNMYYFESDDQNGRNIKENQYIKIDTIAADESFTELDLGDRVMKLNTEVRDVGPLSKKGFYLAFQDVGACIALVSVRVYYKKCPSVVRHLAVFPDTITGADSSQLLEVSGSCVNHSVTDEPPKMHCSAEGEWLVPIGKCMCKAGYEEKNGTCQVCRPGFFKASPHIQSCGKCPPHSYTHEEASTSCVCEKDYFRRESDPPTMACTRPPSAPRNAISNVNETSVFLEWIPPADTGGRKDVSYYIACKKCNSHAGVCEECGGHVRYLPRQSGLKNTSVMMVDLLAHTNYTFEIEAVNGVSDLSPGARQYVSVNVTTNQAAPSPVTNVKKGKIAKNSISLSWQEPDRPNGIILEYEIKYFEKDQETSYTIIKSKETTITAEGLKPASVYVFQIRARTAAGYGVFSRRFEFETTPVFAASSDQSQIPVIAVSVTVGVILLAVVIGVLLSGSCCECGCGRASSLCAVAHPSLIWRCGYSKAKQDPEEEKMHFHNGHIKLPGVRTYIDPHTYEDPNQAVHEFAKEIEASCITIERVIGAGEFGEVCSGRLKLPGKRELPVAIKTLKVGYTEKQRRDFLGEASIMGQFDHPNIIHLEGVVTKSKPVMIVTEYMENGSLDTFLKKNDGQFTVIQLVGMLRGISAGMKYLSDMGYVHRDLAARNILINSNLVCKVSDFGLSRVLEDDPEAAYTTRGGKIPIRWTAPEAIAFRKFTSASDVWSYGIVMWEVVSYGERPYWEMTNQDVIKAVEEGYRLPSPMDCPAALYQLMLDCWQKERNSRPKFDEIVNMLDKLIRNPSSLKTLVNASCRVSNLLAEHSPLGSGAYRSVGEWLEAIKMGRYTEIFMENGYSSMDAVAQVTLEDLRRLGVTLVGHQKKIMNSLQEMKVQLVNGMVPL

In the case of `Nc1cc(C(F)(F)F)c(-c2cc(N3CCOCC3)nc(N3CCOCC3)n2)cn1` [Buparlisib], the remaining activity at 1 µM in experiment [1] was determined as 93%; in [2] it was 100%; in experiment [3] it was 100%; in experiment [4] it was 100%; in [5], 100%; in experiment [6], 96%. Also, the remaining activity at 1 µM in experiment [7], in [8], in [9] and in experiment [10] was 100% in each case. The remaining activity at 10 µM in [1] (setting [11]) was determined as 100%; in experiment [2] (setting [11]) it was 100%; in [3] (setting [11]), 100%; in experiment [4] (10 µM, read-out: TAK1 (% of control at 10 µM)) it was 100%; in experiment [5] (10 µM, read-out: ULK3 (% of control at 10 µM)) it was 100%; in [6] (setting [11]), 99%. In addition, the remaining activity at 10 µM in [7] (setting [11]), in experiment [8] (setting [11]), in [9] (setting [11]) and in experiment [10] (setting [11]) was 100% in each case.
In the case of `Cn1c(=O)n(-c2ccc(C(C)(C)C#N)cc2)c2c3cc(-c4cnc5ccccc5c4)ccc3ncc21` [Dactolisib, 2-methyl-2-[4-(3-methyl-2-oxo-8-quinolin-3-yl-2,3-dihydroimidazo[4,5-c]quinolin-1-yl)-phenyl] propionitrile], the remaining activity at 1 µM is 100% in experiment [1]; 82% in experiment [2]; 78% in experiment [3]; 55% in [4]; 100% in [5]; 97% in experiment [6]. Also, the remaining activity at 1 µM in experiment [8] stood at 100%; in [9], 65%; in [10], 100%.
As to `COc1ncc(-c2ccc3nccc(-c4ccnnc4)c3c2)cc1NS(=O)(=O)c1ccc(F)cc1F` [Omipalisib], the remaining activity at 1 µM was found to be 95% in experiment [1]; 100% in experiment [2]; 100% in experiment [3]; 82% in experiment [4]; 100% in experiment [5]; 85% in [6]. Also, the remaining activity at 1 µM in experiment [7] is 100%; in experiment [8], 99%; in experiment [9] it was 100%; in [10] it was 82%.
Turning to `FC(F)c1nc2ccccc2n1-c1nc(N2CCOCC2)nc(N2CCOCC2)n1` [ZSTK474, 2-(difluoromethyl)-1-[4,6-di(4-morpholinyl)-1,3,5-triazin-2-yl]-1H-benzimidazole], the remaining activity at 1 µM in [1] stood at 96%; in [2], 98%; in experiment [3], 100%; in experiment [4], 68%; in experiment [5] it was 97%; in experiment [6], 100%. The remaining activity at 1 µM came to 100% in experiment [7], 100% in experiment [8], 76% in [9] and 100% in [10].
